# Laboratory results reported in article PMC9206137, “Synergistic anti-SARS-CoV-2 activity of repurposed anti-parasitic drug combinations” (BMC Pharmacology & Toxicology, 2022).
# Where “and” joins values, the source holds several entries; their conditions need not be identical. Identical values can stand only once. Like-named read-outs stand apart in the source and are kept apart here.
# Tests used:
# [1] = system: SARS-CoV-2; assay: Antiviral activity against SARS-CoV-2 in Vero E6 cells, one-step qRT-PCR (single drugs, two-drug combinations, synergy analysis); conditions: for %inhibition (qRT-PCR) / % inhibition: replicates; for % inhibition: Vero E6 cells
# [2] = system: plasma nonstructural protein 1; conditions: dengue patients; cited from earlier work
# [3] = system: SARS-CoV-2; assay: microbe, parasite or virus in culture; format: cell-based; conditions: for %inhibition (plaque assay) / % inhibition: replicates; for % inhibition: Calu-3 cells
# [4] = system: SARS-CoV-2; assay: Antiviral activity against SARS-CoV-2 in Vero E6 cells, plaque assay; format: cell-based; conditions: Vero E6; for %inhibition (plaque assay): replicates
# [5] = system: dengue virus; conditions: read-out: IC50 against dengue virus, cited from earlier work
# [6] = system: Calu-3 cells; assay: Cell viability assay (MTT) in Calu-3 cells; conditions: for %cell viability / cell viability: replicates; for cell viability: Calu-3 cells
# Experimental: (§1) Subsequently, the cell viability was assessed using MTT dyes (Invitrogen) in duplicate (Supplementary file 1). The procedure was described elsewhere. The viability of drug-treated cells was expressed as percent cell viability relative to 0.5% DMSO-treated cells.
# [7] = humans; oral 200 μg/kg; mean ± SD; cited from earlier work
# [8] = system: Vero E6 cells; assay: Cell viability assay (MTT) in Vero E6 cells; conditions: for %cell viability / cell viability: replicates; for cell viability: Vero E6 cells
# Experimental: as §1
# [9] = calculated based on lung: plasma ratio in cattle; cited from earlier work
# [10] = system: SARS-CoV-2; conditions: cited from earlier work
substance,measurement,setting,value
ivermectin,%inhibition (qRT-PCR),"[1]; Vero E6, ivermectin 0.15625 uM",20.77% and 18.77% and 17.59%
same,%inhibition (qRT-PCR),"[1]; Vero E6, ivermectin 0.3125 uM",22.09% and 7.36% and 10.53%
same,%inhibition (qRT-PCR),"[1]; Vero E6, ivermectin 0.625 uM",17.18% and 18.46% and 16.20%
same,%inhibition (qRT-PCR),"[1]; Vero E6, ivermectin 1.25 uM",48.83% and 48.22% and 45.15%
same,%inhibition (qRT-PCR),"[1]; Vero E6, ivermectin 2.5 uM",68.53% and 77.48% and 81.10%
same,%inhibition (qRT-PCR),"[1]; Vero E6, ivermectin 5 uM",80.18% and 78.28% and 78.87%
same,% inhibition,[1]; Ivermectin 0.3 uM alone,24.74% and 21.54% and 19.89%
same,% inhibition,[1]; Ivermectin 0.6 uM alone,40.13% and 29.29% and 31.22%
same,% inhibition,[1]; Ivermectin 1.2 uM alone,46.41% and 46.78% and 47.88%
same,% inhibition,[1]; Ivermectin 2.4 uM alone,68.57% and 80.79% and 75.01%
same,IC50,"[1]; read-out: IC50 (μM) qRT-PCR, Vero E6, MOI 0.01, 48 hours, single drug",1.27 µM
same,level of plasma nonstructural protein 1,[2],reduce
same,IC50,"[3]; Calu-3, 500 TCID50, plaque assay, single drug",0.2 µM
same,%inhibition (plaque assay),"[3]; Calu-3, ivermectin 0.048828 uM",7.34% and 7.50% and 6.92%
same,%inhibition (plaque assay),"[3]; Calu-3, ivermectin 0.195313 uM",43.75% and 44.69% and 42.02%
same,%inhibition (plaque assay),"[3]; Calu-3, ivermectin 0.390625 uM",55.86% and 56.30% and 55.45%
same,%inhibition (plaque assay),"[3]; Calu-3, ivermectin 0.78125 uM",63.14% and 86.03% and 74.50%
same,%inhibition (plaque assay),"[3]; Calu-3, ivermectin 1.5625 uM",90.72% and 80.25% and 82.92%
same,%inhibition (plaque assay),"[3]; Calu-3, ivermectin 3.125 uM",98.34% and 97.94% and 90.53%
same,% inhibition,[3]; Ivermectin 0.05 uM alone,26.67% (2×) and 33.33%
same,% inhibition,[3]; Ivermectin 0.10 uM alone,33.33% and 26.67% and 40.00%
same,% inhibition,[3]; Ivermectin 0.20 uM alone,40.00% and 66.67% and 53.33%
same,% inhibition,[3]; Ivermectin 0.40 uM alone,53.33% and 73.33% and 66.67%
same,IC50,"[4]; MOI 0.01, 48 hours, single drug",1.23 µM
same,%inhibition (plaque assay),[4]; ivermectin 0.15625 uM,7.34% and 7.50% and 7.15%
same,%inhibition (plaque assay),[4]; ivermectin 0.3125 uM,29.78% and 21.00% and 25.31%
same,%inhibition (plaque assay),[4]; ivermectin 0.625 uM,30.26% (2×) and 32.64%
same,%inhibition (plaque assay),[4]; ivermectin 1.25 uM,52.64% and 56.27% and 48.59%
same,%inhibition (plaque assay),[4]; ivermectin 2.5 uM,63.02% and 62.70% and 66.77%
same,%inhibition (plaque assay),[4]; ivermectin 5 uM,78.39% and 83.51% and 83.02%
same,IC50,[5]; Huh-7 cells,~4.64 µM
same,IC50,[5]; immortalized hepatocyte-like cell line,~5.33 µM
same,CC50,"[6]; Calu-3, MTT, 48 hours",3.1 µM
same,%cell viability,"[6]; Calu-3, ivermectin 0.048828 uM",101.77% and 102.10%
same,%cell viability,"[6]; Calu-3, ivermectin 0.195313 uM",103.33%
same,%cell viability,"[6]; Calu-3, ivermectin 0.390625 uM",106.67% and 102.92%
same,%cell viability,"[6]; Calu-3, ivermectin 0.78125 uM",103.89%
same,%cell viability,"[6]; Calu-3, ivermectin 1.5625 uM",100.11% and 106.94%
same,%cell viability,"[6]; Calu-3, ivermectin 3.125 uM",41.94% and 53.47%
same,%cell viability,"[6]; Calu-3, ivermectin 6.25 uM",6.67%
same,%cell viability,"[6]; Calu-3, ivermectin 12.5 uM",6.53% and 6.39%
same,cell viability,[6]; Ivermectin 0.05 uM alone,100.07 and 99.88
same,cell viability,[6]; Ivermectin 0.10 uM alone,99.91 and 100.11
same,cell viability,[6]; Ivermectin 0.20 uM alone,101.94 and 95.31
same,cell viability,[6]; Ivermectin 0.40 uM alone,94.38 and 100.45
same,maximum plasma concentration,[7],0.049 ± 0.02 µM
same,CC50,"[8]; Vero E6, MTT, 48 hours",10.6 µM
same,%cell viability,"[8]; Vero E6, ivermectin 0.15625 uM",102.24%
same,%cell viability,"[8]; Vero E6, ivermectin 0.3125 uM",100.47% and 100.17%
same,%cell viability,"[8]; Vero E6, ivermectin 0.625 uM",102.19%
same,%cell viability,"[8]; Vero E6, ivermectin 1.25 uM",100.11% and 101.75%
same,%cell viability,"[8]; Vero E6, ivermectin 2.5 uM",99.32%
same,%cell viability,"[8]; Vero E6, ivermectin 5 uM",83.87% and 88.89%
same,%cell viability,"[8]; Vero E6, ivermectin 10 uM",55.14% and 53.62% and 46.86%
same,%cell viability,"[8]; Vero E6, ivermectin 20 uM",21.86% and 15.62% and 14.14%
same,%cell viability,"[8]; Vero E6, ivermectin 40 uM",12.31% and 10.14% and 11.10%
same,cell viability,[8]; Ivermectin 0.3 uM alone,100.47 and 100.17
same,cell viability,[8]; Ivermectin 0.6 uM alone,102.19
same,cell viability,[8]; Ivermectin 1.2 uM alone,100.11 and 101.75
same,cell viability,[8]; Ivermectin 2.4 uM alone,99.32
same,predicted maximum lung concentration,[9],0.0873 µM
same,reduction in SARS-CoV-2 replication in vitro,[10],up to 5000 fold
